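Cultured in 96-well plates, cells were exposed to test compound for 48 hours across five concentrations. TGI is the concentration that stops growth completely.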
Key:
Assay in all cases: NCI anticancer screen, dose series, 48 h
SNB-19 CNS = tested on: SNB-19 CNS
MCF7 breast = tested on: MCF7 breast
SK-MEL-2 melanoma = tested on: SK-MEL-2 melanoma
OVCAR-8 ovarian = tested on: OVCAR-8 ovarian
MDA-MB-231 breast = tested on: MDA-MB-231 breast
UO-31 renal = tested on: UO-31 renal
HS 578T breast = tested on: HS 578T breast
RPMI-8226 leukemia = tested on: RPMI-8226 leukemia
IGROV1 ovarian = tested on: IGROV1 ovarian
SK-OV-3 ovarian = tested on: SK-OV-3 ovarian
LOX IMVI melanoma = tested on: LOX IMVI melanoma
TK-10 renal = tested on: TK-10 renal
NCI/ADR-RES ovarian = tested on: NCI/ADR-RES ovarian
OVCAR-3 ovarian = tested on: OVCAR-3 ovarian
M14 melanoma = tested on: M14 melanoma
SNB-75 CNS = tested on: SNB-75 CNS
OVCAR-5 ovarian = tested on: OVCAR-5 ovarian
NCI-H23 lung = tested on: NCI-H23 lung
CCRF-CEM leukemia = tested on: CCRF-CEM leukemia
HCC-2998 colon = tested on: HCC-2998 colon
EKVX NSCLC = tested on: EKVX NSCLC
SF-268 CNS = tested on: SF-268 CNS
SN12C renal = tested on: SN12C renal
UACC-257 melanoma = tested on: UACC-257 melanoma
ACHN renal = tested on: ACHN renal
NCI-H226 lung = tested on: NCI-H226 lung
SK-MEL-5 melanoma = tested on: SK-MEL-5 melanoma
A498 renal = tested on: A498 renal
A549 NSCLC = tested on: A549 NSCLC
SK-MEL-28 melanoma = tested on: SK-MEL-28 melanoma
MDA-N = tested on: MDA-N
MOLT-4 leukemia = tested on: MOLT-4 leukemia
HL-60(TB) leukemia = tested on: HL-60(TB) leukemia
SW-620 colon = tested on: SW-620 colon
PC-3 prostate = tested on: PC-3 prostate
RXF 393 renal = tested on: RXF 393 renal
NCI-H460 lung = tested on: NCI-H460 lung
U251 CNS = tested on: U251 CNS
HCT-116 colon = tested on: HCT-116 colon
KM12 colon = tested on: KM12 colon
BT-549 breast = tested on: BT-549 breast
COLO 205 colon = tested on: COLO 205 colon
NCI-H522 lung = tested on: NCI-H522 lung
MALME-3M melanoma = tested on: MALME-3M melanoma
HOP-62 NSCLC = tested on: HOP-62 NSCLC
MDA-MB-435 = tested on: MDA-MB-435
OVCAR-4 ovarian = tested on: OVCAR-4 ovarian
CAKI-1 renal = tested on: CAKI-1 renal
T-47D breast = tested on: T-47D breast
HOP-92 NSCLC = tested on: HOP-92 NSCLC
SF-295 CNS = tested on: SF-295 CNS
DU-145 prostate = tested on: DU-145 prostate
HT29 colon = tested on: HT29 colon
UACC-62 melanoma = tested on: UACC-62 melanoma
SF-539 CNS = tested on: SF-539 CNS
HCT-15 colon = tested on: HCT-15 colon
K-562 leukemia = tested on: K-562 leukemia
SR leukemia = tested on: SR leukemia
786-0 renal = tested on: 786-0 renal

O=C(OC1C=C=CS(=O)(=O)CC#C/C=C\1)c1cnc2ccccc2n1 (stereo not drawn) gave a TGI (SNB-19 CNS) greater than 100 µM, a TGI (MCF7 breast) greater than 100 µM and a TGI (SK-MEL-2 melanoma) greater than 100 µM. The TGI (OVCAR-8 ovarian) was greater than 100 µM, the TGI (MDA-MB-231 breast) was greater than 100 µM and the TGI (UO-31 renal) was greater than 100 µM. For the same compound, the TGI (HS 578T breast) was greater than 100 µM, the TGI (RPMI-8226 leukemia) was greater than 100 µM and the TGI (IGROV1 ovarian) was greater than 100 µM. The TGI (SK-OV-3 ovarian) was greater than 100 µM, the TGI (LOX IMVI melanoma) was greater than 100 µM and the TGI (TK-10 renal) was greater than 100 µM. For the same compound, the TGI (NCI/ADR-RES ovarian) was greater than 100 µM, the TGI (OVCAR-3 ovarian) was greater than 100 µM and the TGI (M14 melanoma) was greater than 100 µM. For the same compound, the TGI (SNB-75 CNS) was greater than 100 µM, the TGI (OVCAR-5 ovarian) was greater than 100 µM and the TGI (NCI-H23 lung) was greater than 100 µM. For the same compound, the TGI (CCRF-CEM leukemia) was greater than 100 µM, the TGI (HCC-2998 colon) was greater than 100 µM and the TGI (EKVX NSCLC) was greater than 100 µM. For the same compound, the TGI (SF-268 CNS) was greater than 100 µM, the TGI (SN12C renal) was greater than 100 µM and the TGI (UACC-257 melanoma) was greater than 100 µM. The TGI (ACHN renal) was greater than 100 µM, the TGI (NCI-H226 lung) was greater than 100 µM and the TGI (SK-MEL-5 melanoma) was greater than 100 µM. The TGI (A498 renal) was greater than 100 µM, the TGI (A549 NSCLC) was greater than 100 µM and the TGI (SK-MEL-28 melanoma) was greater than 100 µM. For the same compound, the TGI (MDA-N) was greater than 100 µM, the TGI (MOLT-4 leukemia) was greater than 100 µM and the TGI (HL-60(TB) leukemia) was greater than 100 µM. For the same compound, the TGI (SW-620 colon) was greater than 100 µM, the TGI (PC-3 prostate) was greater than 100 µM and the TGI (RXF 393 renal) was greater than 100 µM. It also gave a TGI (NCI-H460 lung) greater than 100 µM, a TGI (U251 CNS) greater than 100 µM and a TGI (HCT-116 colon) greater than 100 µM. For the same compound, the TGI (KM12 colon) was greater than 100 µM, the TGI (BT-549 breast) was greater than 100 µM and the TGI (COLO 205 colon) was greater than 100 µM. The TGI (NCI-H522 lung) was 51.6 µM, the TGI (MALME-3M melanoma) was greater than 100 µM and the TGI (HOP-62 NSCLC) was greater than 100 µM. The TGI (MDA-MB-435) was greater than 100 µM, the TGI (OVCAR-4 ovarian) was greater than 100 µM and the TGI (CAKI-1 renal) was greater than 100 µM. It also gave a TGI (T-47D breast) greater than 100 µM, a TGI (HOP-92 NSCLC) of 90.1 µM and a TGI (SF-295 CNS) greater than 100 µM. The TGI (DU-145 prostate) was greater than 100 µM, the TGI (HT29 colon) was greater than 100 µM and the TGI (UACC-62 melanoma) was greater than 100 µM. The TGI (SF-539 CNS) was greater than 100 µM, the TGI (HCT-15 colon) was greater than 100 µM and the TGI (K-562 leukemia) was greater than 100 µM. For the same compound, the TGI (SR leukemia) was greater than 100 µM.
Work on O=C1CC(c2ccccc2Cl)C2(C(=O)NC(=S)NC2=O)C(c2ccccc2Cl)C1 (stereo not drawn) yielded a TGI (SNB-19 CNS) of 30.9 µM, a TGI (MCF7 breast) of 40.2 µM and a TGI (SK-MEL-2 melanoma) of 62 µM. The TGI (OVCAR-8 ovarian) was 49.6 µM, the TGI (MDA-MB-231 breast) was 72.8 µM and the TGI (UO-31 renal) was greater than 100 µM. For the same compound, the TGI (HS 578T breast) was 22.8 µM, the TGI (RPMI-8226 leukemia) was greater than 100 µM and the TGI (IGROV1 ovarian) was 77 µM. It also gave a TGI (SK-OV-3 ovarian) greater than 100 µM, a TGI (LOX IMVI melanoma) of 36.4 µM and a TGI (TK-10 renal) of 0.206 µM. For the same compound, the TGI (NCI/ADR-RES ovarian) was greater than 100 µM, the TGI (OVCAR-3 ovarian) was 60 µM and the TGI (M14 melanoma) was 38.9 µM. It also gave a TGI (SNB-75 CNS) greater than 100 µM, a TGI (OVCAR-5 ovarian) greater than 100 µM and a TGI (NCI-H23 lung) of 37.7 µM. It also gave a TGI (CCRF-CEM leukemia) greater than 100 µM, a TGI (HCC-2998 colon) of 52.1 µM and a TGI (EKVX NSCLC) greater than 100 µM. For the same compound, the TGI (SF-268 CNS) was 38.3 µM, the TGI (SN12C renal) was 65.8 µM and the TGI (UACC-257 melanoma) was 30.6 µM. For the same compound, the TGI (ACHN renal) was 55.7 µM, the TGI (NCI-H226 lung) was 71.4 µM and the TGI (SK-MEL-5 melanoma) was 58.6 µM. For the same compound, the TGI (A498 renal) was 40.4 µM, the TGI (A549 NSCLC) was 65.5 µM and the TGI (SK-MEL-28 melanoma) was greater than 100 µM. For the same compound, the TGI (MDA-N) was greater than 100 µM, the TGI (MOLT-4 leukemia) was greater than 100 µM and the TGI (HL-60(TB) leukemia) was greater than 100 µM. The TGI (SW-620 colon) was greater than 100 µM, the TGI (PC-3 prostate) was 81.8 µM and the TGI (RXF 393 renal) was 32.8 µM. The TGI (NCI-H460 lung) was 42.9 µM, the TGI (U251 CNS) was 32.8 µM and the TGI (HCT-116 colon) was 41 µM. For the same compound, the TGI (KM12 colon) was 27.1 µM, the TGI (BT-549 breast) was 98.2 µM and the TGI (COLO 205 colon) was greater than 100 µM. It also gave a TGI (NCI-H522 lung) of 99.3 µM, a TGI (MALME-3M melanoma) of 31 µM and a TGI (HOP-62 NSCLC) greater than 100 µM. The TGI (MDA-MB-435) was 34.4 µM, the TGI (786-0 renal) was 51 µM and the TGI (OVCAR-4 ovarian) was greater than 100 µM. It also gave a TGI (T-47D breast) of 93.5 µM, a TGI (HOP-92 NSCLC) of 32.1 µM and a TGI (SF-295 CNS) of 66.6 µM. For the same compound, the TGI (DU-145 prostate) was greater than 100 µM, the TGI (HT29 colon) was greater than 100 µM and the TGI (UACC-62 melanoma) was 40.8 µM. The TGI (SF-539 CNS) was greater than 100 µM, the TGI (HCT-15 colon) was 53.6 µM and the TGI (K-562 leukemia) was greater than 100 µM. For the same compound, the TGI (SR leukemia) was greater than 100 µM.
With COC(=O)Cc1c([C@H]2[C@H](CC(=O)OC)c3ccccc3N2C(=O)C(F)(F)F)[nH]c2ccccc12 the TGI (SNB-19 CNS) was greater than 100 µM, the TGI (MCF7 breast) was greater than 100 µM and the TGI (SK-MEL-2 melanoma) was 58.3 µM. The TGI (OVCAR-8 ovarian) was greater than 100 µM, the TGI (MDA-MB-231 breast) was 73.4 µM and the TGI (UO-31 renal) was greater than 100 µM. For the same compound, the TGI (HS 578T breast) was 92.1 µM, the TGI (RPMI-8226 leukemia) was greater than 100 µM and the TGI (IGROV1 ovarian) was greater than 100 µM. For the same compound, the TGI (SK-OV-3 ovarian) was greater than 100 µM, the TGI (LOX IMVI melanoma) was greater than 100 µM and the TGI (TK-10 renal) was greater than 100 µM. For the same compound, the TGI (NCI/ADR-RES ovarian) was 91.3 µM, the TGI (OVCAR-3 ovarian) was 38 µM and the TGI (SNB-75 CNS) was 84.6 µM. It also gave a TGI (OVCAR-5 ovarian) greater than 100 µM, a TGI (NCI-H23 lung) greater than 100 µM and a TGI (CCRF-CEM leukemia) of 56.2 µM. The TGI (HCC-2998 colon) was greater than 100 µM, the TGI (EKVX NSCLC) was greater than 100 µM and the TGI (SF-268 CNS) was greater than 100 µM. The TGI (SN12C renal) was greater than 100 µM, the TGI (UACC-257 melanoma) was greater than 100 µM and the TGI (ACHN renal) was greater than 100 µM. For the same compound, the TGI (NCI-H226 lung) was greater than 100 µM, the TGI (SK-MEL-5 melanoma) was 24.8 µM and the TGI (A498 renal) was greater than 100 µM. For the same compound, the TGI (A549 NSCLC) was greater than 100 µM, the TGI (SK-MEL-28 melanoma) was greater than 100 µM and the TGI (MDA-N) was greater than 100 µM. For the same compound, the TGI (MOLT-4 leukemia) was 38.4 µM, the TGI (HL-60(TB) leukemia) was greater than 100 µM and the TGI (SW-620 colon) was greater than 100 µM. For the same compound, the TGI (PC-3 prostate) was greater than 100 µM, the TGI (RXF 393 renal) was 98.4 µM and the TGI (NCI-H460 lung) was 55 µM. The TGI (U251 CNS) was 47.8 µM, the TGI (HCT-116 colon) was greater than 100 µM and the TGI (BT-549 breast) was 97.2 µM. The TGI (COLO 205 colon) was 36.1 µM, the TGI (NCI-H522 lung) was 56.2 µM and the TGI (MALME-3M melanoma) was 90.6 µM. The TGI (HOP-62 NSCLC) was greater than 100 µM, the TGI (MDA-MB-435) was 62 µM and the TGI (786-0 renal) was greater than 100 µM. It also gave a TGI (OVCAR-4 ovarian) greater than 100 µM, a TGI (CAKI-1 renal) greater than 100 µM and a TGI (T-47D breast) greater than 100 µM. It also gave a TGI (HOP-92 NSCLC) greater than 100 µM, a TGI (SF-295 CNS) of 80.7 µM and a TGI (DU-145 prostate) greater than 100 µM. It also gave a TGI (HT29 colon) greater than 100 µM, a TGI (UACC-62 melanoma) of 30.3 µM and a TGI (SF-539 CNS) greater than 100 µM. The TGI (HCT-15 colon) was greater than 100 µM, the TGI (K-562 leukemia) was greater than 100 µM and the TGI (SR leukemia) was 82.3 µM.
